Consider 25 compounds from patent US10526327B2, “Histone demethylase inhibitors” (CELGENE QUANTICEL RESEARCH, INC., priority 2013, dated 2020).

In one experiment the target is T1, Jarid1A (Homo sapiens, UniProt P29375).
T1 construct: purchased BPS Bioscience 50110
T1 sequence (P29375 1-1090): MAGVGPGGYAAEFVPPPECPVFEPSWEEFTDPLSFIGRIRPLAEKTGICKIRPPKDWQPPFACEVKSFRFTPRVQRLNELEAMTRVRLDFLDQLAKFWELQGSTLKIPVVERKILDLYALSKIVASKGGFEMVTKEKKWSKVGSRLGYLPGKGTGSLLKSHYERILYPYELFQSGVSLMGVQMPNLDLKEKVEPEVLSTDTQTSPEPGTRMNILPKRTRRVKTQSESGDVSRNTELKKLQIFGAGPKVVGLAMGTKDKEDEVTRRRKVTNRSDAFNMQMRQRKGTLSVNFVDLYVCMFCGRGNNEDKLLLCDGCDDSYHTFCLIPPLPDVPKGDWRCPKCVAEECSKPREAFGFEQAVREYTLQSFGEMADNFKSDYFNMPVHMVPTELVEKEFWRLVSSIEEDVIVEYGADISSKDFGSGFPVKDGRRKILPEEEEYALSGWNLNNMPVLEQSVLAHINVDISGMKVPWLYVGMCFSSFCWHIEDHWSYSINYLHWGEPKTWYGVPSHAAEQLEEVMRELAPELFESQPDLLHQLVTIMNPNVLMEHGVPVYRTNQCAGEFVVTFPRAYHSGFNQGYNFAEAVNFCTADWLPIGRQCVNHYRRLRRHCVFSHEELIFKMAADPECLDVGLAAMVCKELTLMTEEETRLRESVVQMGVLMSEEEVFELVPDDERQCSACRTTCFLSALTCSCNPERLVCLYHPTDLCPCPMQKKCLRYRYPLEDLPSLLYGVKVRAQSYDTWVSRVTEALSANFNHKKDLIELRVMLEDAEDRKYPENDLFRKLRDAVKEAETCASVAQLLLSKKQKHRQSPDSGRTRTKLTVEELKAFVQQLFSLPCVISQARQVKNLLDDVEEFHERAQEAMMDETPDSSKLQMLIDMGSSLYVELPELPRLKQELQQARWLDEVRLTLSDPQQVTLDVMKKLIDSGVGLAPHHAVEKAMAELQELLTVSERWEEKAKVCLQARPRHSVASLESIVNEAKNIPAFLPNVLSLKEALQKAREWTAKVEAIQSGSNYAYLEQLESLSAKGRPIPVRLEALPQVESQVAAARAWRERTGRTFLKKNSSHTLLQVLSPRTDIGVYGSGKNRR
The experiment is described as follows: Jarid1A in vitro enzyme inhibition assay (TR-FRET). The format is biochemical. The source says:
This assay determines the ability of a test compound to inhibit Jarid1A, Jarid1B, and JMJD2C demethylase activity. Baculovirus expressed Jarid1A (GenBank Accession #NM_001042603, AA1-1090) was purchased from BPS Bioscience (Cat#50110). Baculovirus expressed Jarid1B (GenBank Accession #NM_006618, AA 2-751) was purchased from BPS Bioscience (Cat #50121) or custom made by MolecularThroughput. Baculovirus expressed JMJD2C (GenBank Accession #BC143571, AA 2-372) was purchased from BPS Bioscience (Cat#50105).
The enzymatic assay of Jarid1A activity is based upon Time Resolved-Fluorescence Resonance Energy Transfer (TR-FRET) detection. The ability of test compounds to inhibit the activity of Jarid1A was determined in 384-well plate format under the following reaction conditions: 1 nM Jarid1A, 300 nM H3K4me3-biotin labeled peptide (Anaspec cat #64357), 2 μM alpha-ketoglutaric acid in assay buffer of 50 mM HEPES, pH7.3, 0.005% Brij35, 0.5 mM TCEP, 0.2 mg/ml BSA, 50 μM sodium L-ascorbate, and 2 μM ammonium iron(II) sulfate. Reaction product was determined quantitatively by TR-FRET after the addition of detection reagent Phycolink Streptavidin-allophycocyanin (Prozyme) and Europium-anti-mono-or di-methylated histone H3 lysine 4 (H3K4me1-2) antibody (PerkinElmer) in the presence of 5 mM EDTA in LANCE detection buffer (PerkinElmer) at a final concentration of 25 nM and 1 nM, respectively.
The assay reaction was initiated by the following: 2 μl of the mixture of 900 nM H3K4me3-biotin labeled peptide and 6 μM alpha-ketoglutaric acid with 2 μl of 11-point serial diluted inhibitor in 3% DMSO was added to each well of plate, followed by the addition of 2 μl of 3 nM Jarid1A to initiate the reaction. The reaction mixture was incubated at room temperature for 30 minutes, and terminated by the addition of 6 μl of 5 mM EDTA in LANCE detection buffer containing 50 nM Phycolink Streptavidin-allophycocyanin and 2 nM Europium-anti-H3K4me1-2 antibody. Plates were read by EnVisionMultilabel Reader in TR-FRET mode (excitation at 320 nm, emission at 615 nm and 665 nm) after 1 hour incubation at room temperature. A ratio was calculated (665/615) for each well and fitted to determine inhibition constant (IC50).
For orientation: Time-resolved FRET reads energy transfer from a long-lived donor to a nearby acceptor.

The subject of the next experiment is KDM5A/B. Briefly: In vitro cell-based assay: immuno-blot quantification of tri-methyl H3K4 in ZR-75-1 breast cancer cells. The following applies: 72 hours, tri-methyl H3K4 level relative to GAPDH, percent of DMSO, read-out: Cellular IC50. The source says: An assay to measure the degree of cellular inhibition of KDM5A and 5B was developed. This quantitative immuno-blotting assay measures the amount tri-methylated histone H3 at amino acid Lysine number 4, a specific substrate […] of the direct enzymatic activity of the histone demethylases KDM5A and KDM5B from extracts of the ZR-75-1 breast cancer cell line.
This assay is a fluorometric immunoassay for the quantification of tri-methyl H3K4 extracted from cells treated with test compound and is used as a measure of the cellular inhibition of KDM5A/B.
ZR-75-1 (PTEN null, ER+) breast cancer cells numbering 50,000 (ATCC) were seeded into each well of a 96-well tissue culture treated plate and then exposed to an 11 point dilution of test compound with final concentration ranges of test compound ranging from 1250 μM to 10 nM. Cells were left in the presence of test compound for 72 hours. Extracts were prepared containing all of the cellular histone material using detergent based lysis and sonication methods. These lysates were subsequently normalized for total protein content using a colorimetric bicinchonic acid assay (MicroBCA Pierce/Thermo Scientific). Normalized cell extracts were then subjected to typical immuno-blotting procedures using NuPage reagents (Life Technologies). Electrophoretically separated histones were then transferred and immobilized using polyvinylidene difluoride membrane (Immobilon-FL Millipore). The amount of tri-methylated lysine 4 of histone H3 was detected using an antibody specific to the tri-methylated state (Cell Signaling Technologies) and quantified on an infrared imager using a densitometry software package (Odyssey CLx, Image Studio, Li-Cor). This background subtracted densitometry value was reported as a ration of the GAPDH amount for that sample and then calculated as a percent of the DMSO treated sample. The software package XL-fit (IDBS) was then used to calculate a relative IC50 value for the dilution series of a given test compound according to the equation: fit=(D+((Vmax*(x^n))/((x^n)+(Km^n)))).

By IC50 is commonly meant the concentration at which inhibition is half-maximal. As for `Oc1nc(Oc2cnn(C3CCCC3)c2)nc2cnccc12` [Example 56, 2-[(1-cyclopentylpyrazol-4-yl)oxy]pyrido[3,4-d]pyrimidin-4-ol], the IC50 on Jarid1A is not above 0.1 µM; in the experiment on KDM5A/B, 1 to 10 µM.
For `Oc1nc(Oc2ccc(F)c(F)c2)nc2cnccc12` [Example 37, 2-(3,4-difluorophenoxy)pyrido[3,4-d]pyrimidin-4-ol], in that order: not above 0.1 µM and more than 10 µM.
The like results for `COc1ccc(Oc2nc(O)c3ccncc3n2)cc1` [Example 48, 2-(4-methoxyphenoxy)pyrido[3,4-d]pyrimidin-4-ol] were, in that order, not above 0.1 µM and more than 10 µM.
The like results for `Oc1nc(OCCOc2ccccc2)nc2cnccc12` [Example 10, 2-(2-phenoxyethoxy)-3H-pyrido[3,4-d]pyrimidin-4-one] were, in that order, not above 0.1 µM and more than 10 µM.
Take `Oc1nc(Oc2ccc(Cl)cc2)nc2cnccc12` [Example 49, 2-(4-chlorophenoxy)pyrido[3,4-d]pyrimidin-4-ol]: the values for the concentration for half-maximal inhibition (IC50) at Jarid1A and in the experiment with KDM5A/B were not above 0.1 µM and more than 10 µM, respectively.
For `Oc1nc(OCC2CC2)nc2cnccc12` [Example 5, 2-(cyclopropylmethoxy)-3H-pyrido[3,4-d]pyrimidin-4-one], in that order: not above 0.1 µM and more than 10 µM.
For `Cn1cnc(-c2nccc3c(O)nc(OCC4CC4)nc23)c1` [Example 72, 2-(cyclopropylmethoxy)-8-(1-methylimidazol-4-yl)pyrido[3,4-d]pyrimidin-4-ol], in that order: not above 0.1 µM and 1 to 10 µM.
Consider `Cn1cnc(-c2nccc3c(O)nc(OCCO)nc23)c1` [Example 75, 2-(2-hydroxyethoxy)-8-(1-methylimidazol-4-yl)pyrido[3,4-d]pyrimidin-4-ol], for which the IC50 on Jarid1A was not above 0.1 µM; with KDM5A/B, more than 10 µM.
For `CCCn1cc(Oc2nc(O)c3ccncc3n2)cn1` [Example 54, 2-(1-propylpyrazol-4-yl)oxypyrido[3,4-d]pyrimidin-4-ol], in that order: not above 0.1 µM and 1 to 10 µM.
`CCOc1nc(O)c2ccnc(-c3cn(C)cn3)c2n1` [Example 69, 2-ethoxy-8-(1-methyl-1H-imidazol-4-yl)pyrido[3,4-d]pyrimidin-4-ol]: the figures for the IC50 on Jarid1A and in the experiment on KDM5A/B were not above 0.1 µM and more than 10 µM, respectively.
`CC(C)(C)OC(=O)Nc1cccc(Oc2nc(O)c3ccncc3n2)c1` [Example 36, tert-butyl N-[3-(4-hydroxypyrido[3,4-d]pyrimidin-2-yl)oxyphenyl]carbamate]: on Jarid1A, the IC50 is not above 0.1 µM.
Still for that read-out and setting: as for `COc1ccc(Oc2nc(O)c3ccncc3n2)cc1OC` [Example 38, 2-(3,4-dimethoxyphenoxy)pyrido[3,4-d]pyrimidin-4-ol], the figure is not above 0.1 µM; as for `Oc1nc(Oc2ccnc(N3CCNCC3)c2)nc2cnccc12` [Example 96, 2-(2-piperazin-1-ylpyridin-4-yl)oxypyrido[3,4-d]pyrimidin-4-ol], not above 0.1 µM.
Same read-out and setting: as for `OCCOc1nc(O)c2ccncc2n1` [Example 3, 2-(2-hydroxyethoxy)pyrido[3,4-d]pyrimidin-4-ol], the figure is not above 0.1 µM; as for `Cn1cnc(-c2nccc3c(O)nc(OCc4cccc(F)c4)nc23)c1` [Example 104, 2-[(3-fluorophenyl)methoxy]-8-(1-methyl-1H-imidazol-4-yl)pyrido[3,4-d]pyrimidin-4-ol], 0.1 to 1 µM.
On the same count and under the same terms, as for `CCn1cc(Oc2nc(O)c3ccncc3n2)cn1` [Example 62, 2-[(1-ethyl-1H-pyrazol-4-yl)oxy]pyrido[3,4-d]pyrimidin-4-ol], the figure is not above 0.1 µM; as for `O=S(=O)(c1ccccc1)N1CCC(n2cc(Oc3nc(O)c4ccncc4n3)cn2)CC1` [Example 95, 2-[1-[1-(benzenesulfonyl)piperidin-4-yl]pyrazol-4-yl]oxypyrido[3,4-d]pyrimidin-4-ol], not above 0.1 µM.
Compound `Cn1cnc(-c2nccc3c(O)nc(OCC(F)F)nc23)c1` [Example 77, 2-(2,2-difluoroethoxy)-8-(1-methylimidazol-4-yl)pyrido[3,4-d]pyrimidin-4-ol] returned an IC50 against Jarid1A not above 0.1 µM.
On the same count and under the same terms, as for `CCC(C)Oc1nc(O)c2ccncc2n1` (centres unmarked) [Example 9, 2-butan-2-yloxy-3H-pyrido[3,4-d]pyrimidin-4-one], the figure is 1 to 10 µM; as for `Cn1cnc(-c2nccc3c(O)nc(OCc4cccc(Cl)c4Cl)nc23)c1` [Example 106, 2-[(2,3-dichlorophenyl)methoxy]-8-(1-methyl-1H-imidazol-4-yl)pyrido[3,4-d]pyrimidin-4-ol], 1 to 10 µM.
The same measure, in the same setting: as for `Cc1nn(C)c2cc(Oc3nc(O)c4ccnc(-c5cn(C)cn5)c4n3)ccc12` [Example 85, 2-(1,3-dimethylindazol-6-yl)oxy-8-(1-methylimidazol-4-yl)pyrido[3,4-d]pyrimidin-4-ol], the figure is not above 0.1 µM; as for `Oc1nc(Oc2cccc(F)c2F)nc2cnccc12` [Example 42, 2-(2,3-difluorophenoxy)pyrido[3,4-d]pyrimidin-4-ol], not above 0.1 µM; as for `CN(C)CCOc1nc(O)c2ccnc(-c3cn(C)cn3)c2n1` [Example 76, 2-[2-(dimethylamino)ethoxy]-8-(1-methylimidazol-4-yl)pyrido[3,4-d]pyrimidin-4-ol], 0.1 to 1 µM.
Same read-out and setting: to `C=CC(=O)N1CCC(n2cc(Oc3nc(O)c4ccncc4n3)cn2)CC1` [Example 91, 1-[4-[4-(4-hydroxypyrido[3,4-d]pyrimidin-2-yl)oxypyrazol-1-yl]piperidin-1-yl]prop-2-en-1-one] belongs not above 0.1 µM; to `O=S(=O)(C1CC1)N1CCC(n2cc(Oc3nc(O)c4ccncc4n3)cn2)CC1` [Example 94, 2-[1-(1-cyclopropylsulfonylpiperidin-4-yl)pyrazol-4-yl]oxypyrido[3,4-d]pyrimidin-4-ol], not above 0.1 µM.
